From patent publication EP3400955B1, “USE OF CRYPTONIN FOR TREATMENT OF CANCER” (Istanbul Universitesi Rektorlugu, priority 2016, dated 2025)
Where two headings read alike, the source gives them in different places. Ends that are not written are not given here.

Assays:
MCF-7 cells [1] = test: Type of cell death by acridine orange/ethidium bromide double staining; format: cell-based; conditions: 24 hours, mean +/- Standard Error
Protocol: (§1) Cells were stained with acridine orange/ethidium bromide double staining method to morphologically analyze whether cryptonin-induced cell death occurs by a necrotic pathway or by an apoptotic pathway. For this purpose, breast cancer cells were plated in a 24-well plate, with 10,000 cells being present in each well and incubated for 24 hours at the above-mentioned different concentrations of antimicrobial peptides. After incubation, a mixture of acridine orange (Sigma) (100 µg/ml) /ethidium bromide stain (Sigma) (100 µg/ml) prepared in PBS was applied to the cells and the cells were visualized using a FITC/CY3 filter on a fluorescent microscope (Nikon DS5MCU2). 200 cells from each group were counted according to the staining pattern. Cells were grouped as viable, apoptotic and necrotic according to the staining pattern of their nuclei (Spector et al., 1998). Viable cells were distinguished as having green chromatin nuclei in an organized structure, apoptotic cells were distinguished as having green or orange fragmented nuclei, and necrotic cells were distinguished as normal colored but having orange nuclei like normal cells (Ribble et al., 2005).

MDA-MB 231 cells [2] = test: as above; format: cell-based; conditions: 24 hours, mean +/- Standard Error
Protocol: as §1

MCF-7 cells [3] = conditions: 24 hours, positive control = 100%
Protocol: (§2) The lactate dehydrogenase (LDH) release assay is based on the measurement of a cytoplasmic enzyme, lactate dehydrogenase, activity released from damaged cells (Lobner, 2000) and is used for the assessment of cellular cytotoxicity. The cytotoxic effect of cryptonin on MCF-7 and MDA-MB 231 breast cancer cell lines was determined by measuring the activity of lactate dehydrogenase (LDH) enzyme released from damaged cells and a Cytotoxicity Detection Kit, LDH (Roche Molecular Diagnostics, Germany) was used for this purpose.
(§3) In LDH test, a negative control, a control group for spontaneous LDH release from the cells, and a positive control group for maximum LDH release were studied, as well as experimental groups to which peptide was administered. […] For this purpose, doses of 10, 25, 50 and 100 µg/ml were administered for MCF-7 cells and doses of 7.5, 10, 25 and 50 µg/ml were administered for MDA-MB 231 cells, for 24 hours. Cells were grown in the flasks of 75 cm, then removed with trypsin-EDTA and centrifuged. Cells were suspended in medium at 5000 cells per 100 µl, and 100 µl of cell suspension was transferred to 96-well plates. All control groups and experimental groups were studied with 3 wells and the experiment was repeated 3 times. After a 24-hour incubation, the media of the control groups were refreshed. The medium of the experimental groups was replaced with a medium containing different concentrations of peptide. The lactate dehydrogenase enzyme activity released from the cells after the cells were incubated with cryptonin for 24 hours was determined following the manufacturer's instructions. 5 µl of lysis solution (2% Triton-X-100) was added to the wells of the positive control group and the plate was incubated for 15 minutes at 37°C. To measure LDH activity, 100 µl of the freshly prepared reaction mixture containing catalyst (Diaphorase/NAD^+ mixture) and dye solution (iodotetrazolium chloride (INT) and sodium lactate) was added to each well. After 30 minutes of incubation in the dark at room temperature, the reaction was stopped by the addition of 50 µL of stop solution (1N HCl) to each well. The plates were shaken for 10 seconds on an orbital shaker and the spectrophotometric absorbance was measured at a test wavelength of 490 nm and a reference wavelength of 690 nm. The results were determined as % cytotoxicity. The mean absorbance values of the negative control were subtracted from the control and experimental groups, the positive control group was considered to be 100% cytotoxic and the cytotoxicities were calculated by comparing the control and experimental groups with positive control group using the following formula: [formula]

MDA-MB 231 cells [4] = conditions: 24 hours, positive control = 100%
Protocol: as §2, §3

[5] = tested on: 3T3 Fibroblast Cell Membrane; conditions: 100 µg/ml, 24-hour incubation
Protocol: MCF-7 and MDA-MB 231 and 3T3 fibroblast cells were plated into sterile round slides with a diameter of 12 mm in the wells in 24-well plate such that each well contained 50,000 cells. The following day, the medium was replaced with a medium containing cryptonin at a concentration of 100 µg/ml. After 24-hour incubation, the cells were washed 2 times with 0.1 M sodium cacodylate buffer (pH 7.2) and fixed with 2.5% glutaraldehyde prepared in 0.1 M sodium cacodylate buffer for 2 hours. After the first fixation, the cells were washed again with 0.1 M sodium cacodylate buffer and fixed with 1% osmium tetroxide prepared in 0.2 M sodium cacodylate buffer for 30 minutes for the second time. After the cells were washed with 0.2 M sodium cacodylate buffer, they were taken in an increasing series of ethyl alcohol. Dehydration was performed by incubation 3 times with 30% alcohol for 5 minutes, 3 times with 50% alcohol for 5 minutes, 2 times with 70% alcohol for 10 minutes, 2 times with 85% alcohol for 15 minutes, 2 times with 95% alcohol for 15 minutes and 3 times with 100% alcohol for 10 minutes. After the slides were air-dried, they were coated with golden by BioRad SC 502 coating device. The cells were examined with Jeol Neoscope JCM-500 scanning electron microscope and their photographs were taken (Vitale et al., 1998; Hilchie et al., 2011).

erythrocytes = conditions: dose of 25-200 µg/ml; Park et al. (2007); cited from earlier work

Protocol for 3T3 fibroblast cells: Yellow MTT is reduced to purple formazan crystals by the activity of mitochondrial dehydrogenases in viable cells. The intensity of the resulting purple color is directly proportional to the number of viable cells. MTT test was performed in 96-well plates. To this end, the cells grown in the flasks were removed by trypsin-EDTA, then collected by centrifugation and the cell pellet was suspended in the medium such that 5000 cells would be present per 100 µl. 5000 cells were plated in each well of the plate. In the following day, the medium in the wells was removed, fresh medium was added to the control group, and a medium containing anti-microbial peptide was added to the experimental groups at 8 different concentrations. This medium contained 10% serum.
Cells were exposed to different concentrations of antimicrobial peptide for 24 hours. At the end of this period, 30 µl of a solution of 3-(4,5-dimethylthiazol-2-yl)-2,5-diphenyltetrazolium bromide (MTT) was added to each well in the plate. […] The optical density was measured at a test wavelength of 570 nm and a reference wavelength of 630 nm. […] The mean absorbance values obtained from the control group were accepted as 100% cell viability and the values obtained from the wells treated with antimicrobial peptide were assessed versus control group.

Sequence GLLNGLALRLGKRALKKIIKRLCR [cryptonin] has a Viable cell % (MCF-7 cells [1]; 10 µg/ml) of 98.89±5%, a Viable cell % (MCF-7 cells [1]; 25 µg/ml) of 85.3±4.8% and a Viable cell % (MCF-7 cells [1]; 50 µg/ml) of 1.07±1.1%. It also gave a Viable cell % (MCF-7 cells [1]; 100 µg/ml) of 0.06±0.2%, a Viable cell % (MCF-7 cells [1]; 200 µg/ml) of 2.14±1.8% and a Viable cell % (MDA-MB 231 cells [2]; 10 µg/ml) of 95.88±1.6%. For the same sequence, the Viable cell % (MDA-MB 231 cells [2]; 25 µg/ml) was 95.53±2.9%, the Viable cell % (MDA-MB 231 cells [2]; 50 µg/ml) was 45.13±4.1% and the Viable cell % (MDA-MB 231 cells [2]; 100 µg/ml) was 0.04±0.1%. The Viable cell % (MDA-MB 231 cells [2]; 200 µg/ml) was 0±0%, the “LDH release (% cytotoxicity)” value (MCF-7 cells [3]; 25 µg/ml) was 36.03±2.1% and the “LDH release (% cytotoxicity)” value (MCF-7 cells [3]; 50 ug/ml) was 84.1±1.7%. For the same sequence, the “LDH release (% cytotoxicity)” value (MCF-7 cells [3]; 100 µg/ml) was 84.66±1.6%, the “LDH release (% cytotoxicity)” value (MDA-MB 231 cells [4]; 7.5 µg/ml) was 7.09±0.7% and the “LDH release (% cytotoxicity)” value (MDA-MB 231 cells [4]; 10 µg/ml) was 8.46±0.9%. For the same sequence, the “LDH release (% cytotoxicity)” value (MDA-MB 231 cells [4]; 25 µg/ml) was 24.24±2.1%, the “LDH release (% cytotoxicity)” value (MDA-MB 231 cells [4]; 50 µg/ml) was 45.90±1% and the “effect on cell membrane (scanning electron microscope)” value [5] was “disrupted the cell membrane integrity by forming pores, slits and blebs”. The fibroblast cell viability (3T3 fibroblast cells; dose range 25-200 µg/ml) was “significantly reduced”, the “number of viable cells” value (3T3 fibroblast cells; less at 10 µg/ml, more at 25, 50, 100 and 200 µg/ml, 24 hours, cells representing normal cells) was “reduced the number of viable cells” and the hemolysis of erythrocytes (erythrocytes) was 5%.
